Values of other authors, collected in US7288559B2, “Carboxamide spirohydantoin CGRP receptor antagonists” (Merck + Co, Inc., priority 2003, dated 2007).
No end group written: not given here.

Key:
marmoset = conditions: electrical stimulation of the trigeminal ganglion
rats = conditions: electrical stimulation of the dura mater, prior administration
rat = conditions: trigeminal ganglion stimulation

Molecule | effect on increase in facial blood flow (marmoset) | effect on increase of middle meningeal artery diameter (rats) | effect on increased facial blood flow (rat)
NCCCC[C@H](NC(=O)[C@@H](Cc1cc(Br)c(O)c(Br)c1)NC(=O)N1CCC(N2Cc3ccccc3NC2=O)CC1)C(=O)N1CCN(c2ccncc2)CC1 [BIBN4096BS] | blocked |  | 
CGRP(8-37): a peptide CGRP antagonist (VTHRLAGLLSRSGGVVKNNFVPTNVGSKAF; ends and bridges not checked; UniProt P06881 90-119, looked up, fragment) |  | blocked | inhibited
